According to ChEMBL document CHEMBL3580565, “Synthesis and Biological Evaluation of Cyclopentaquinoline Derivatives as Nonsteroidal Glucocorticoid Receptor Antagonists” (J Med Chem, 2015):

How the values were obtained:
[1] = target: T1, Glucocorticoid receptor (Homo sapiens, UniProt P04150); assay: Displacement of [3H]-dexamethasone from cytosolic fraction of human recombinant glucocorticoid receptor by scintillation counting analysis
T1 sequence (P04150 whole entry): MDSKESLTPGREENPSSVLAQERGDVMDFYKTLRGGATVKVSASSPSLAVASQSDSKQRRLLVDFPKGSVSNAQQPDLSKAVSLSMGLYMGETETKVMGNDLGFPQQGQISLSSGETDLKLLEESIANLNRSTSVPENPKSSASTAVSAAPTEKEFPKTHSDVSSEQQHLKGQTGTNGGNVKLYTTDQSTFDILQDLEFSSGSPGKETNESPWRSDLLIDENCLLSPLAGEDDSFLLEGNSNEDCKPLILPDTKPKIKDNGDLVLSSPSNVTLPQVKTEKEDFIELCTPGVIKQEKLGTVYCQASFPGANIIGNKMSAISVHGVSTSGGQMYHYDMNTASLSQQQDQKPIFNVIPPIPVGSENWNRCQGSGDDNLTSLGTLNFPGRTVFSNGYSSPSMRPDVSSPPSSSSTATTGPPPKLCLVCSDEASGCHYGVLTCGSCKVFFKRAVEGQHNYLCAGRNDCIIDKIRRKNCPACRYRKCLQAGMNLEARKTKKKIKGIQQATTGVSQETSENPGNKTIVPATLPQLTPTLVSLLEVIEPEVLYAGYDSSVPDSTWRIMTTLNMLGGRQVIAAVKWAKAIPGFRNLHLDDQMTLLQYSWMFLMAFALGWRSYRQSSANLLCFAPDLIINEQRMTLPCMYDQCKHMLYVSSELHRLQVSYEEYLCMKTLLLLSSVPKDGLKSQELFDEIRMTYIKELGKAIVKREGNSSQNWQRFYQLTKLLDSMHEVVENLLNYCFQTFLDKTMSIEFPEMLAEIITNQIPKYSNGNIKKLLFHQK

[2] = target: T2, Progesterone receptor (Homo sapiens, UniProt P06401); assay: Displacement of [3H]-progesterone from cytosolic fraction of human recombinant progesterone-B receptor by scintillation counting analysis
T2 sequence (P06401 whole entry): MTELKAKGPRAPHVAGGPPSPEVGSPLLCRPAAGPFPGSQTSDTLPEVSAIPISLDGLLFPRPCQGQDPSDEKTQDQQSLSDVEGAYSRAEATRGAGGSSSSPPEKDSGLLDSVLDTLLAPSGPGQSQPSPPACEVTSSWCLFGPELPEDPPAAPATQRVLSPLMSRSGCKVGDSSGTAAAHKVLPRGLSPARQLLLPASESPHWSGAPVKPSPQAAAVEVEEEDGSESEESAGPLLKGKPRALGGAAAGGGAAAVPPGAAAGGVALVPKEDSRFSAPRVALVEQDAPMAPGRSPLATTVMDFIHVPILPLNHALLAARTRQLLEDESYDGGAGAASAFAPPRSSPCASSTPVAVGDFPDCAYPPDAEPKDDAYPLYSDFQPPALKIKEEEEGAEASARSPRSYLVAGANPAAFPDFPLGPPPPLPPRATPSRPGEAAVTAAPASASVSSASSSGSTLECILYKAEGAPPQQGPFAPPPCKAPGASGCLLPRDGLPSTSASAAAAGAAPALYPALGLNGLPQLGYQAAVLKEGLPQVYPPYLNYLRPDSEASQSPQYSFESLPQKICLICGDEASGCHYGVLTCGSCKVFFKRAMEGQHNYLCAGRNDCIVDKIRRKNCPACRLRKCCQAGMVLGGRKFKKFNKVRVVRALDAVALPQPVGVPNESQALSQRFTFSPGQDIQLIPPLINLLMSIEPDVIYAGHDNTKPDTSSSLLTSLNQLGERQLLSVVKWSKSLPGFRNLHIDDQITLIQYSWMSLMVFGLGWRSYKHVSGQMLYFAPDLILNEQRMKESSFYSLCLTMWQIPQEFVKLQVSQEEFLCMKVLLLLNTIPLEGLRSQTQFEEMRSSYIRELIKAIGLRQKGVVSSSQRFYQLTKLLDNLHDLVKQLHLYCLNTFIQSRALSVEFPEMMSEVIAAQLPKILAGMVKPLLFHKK

[3] = target: T1, Glucocorticoid receptor; assay: Antagonist activity at human glucocorticoid receptor transfected in CHOK1 cells assessed as inhibition of dexamethasone-induced receptor transcriptional activity after 6 hrs by luciferase reporter gene assay; assay type: cell-based, CHO-K1
[4] = target: T3, Mineralocorticoid receptor (Homo sapiens, UniProt P08235); assay: Displacement of [3H]-aldosterone from cytosolic fraction of human recombinant mineralocorticoid receptor by scintillation counting analysis
T3 sequence (P08235 whole entry): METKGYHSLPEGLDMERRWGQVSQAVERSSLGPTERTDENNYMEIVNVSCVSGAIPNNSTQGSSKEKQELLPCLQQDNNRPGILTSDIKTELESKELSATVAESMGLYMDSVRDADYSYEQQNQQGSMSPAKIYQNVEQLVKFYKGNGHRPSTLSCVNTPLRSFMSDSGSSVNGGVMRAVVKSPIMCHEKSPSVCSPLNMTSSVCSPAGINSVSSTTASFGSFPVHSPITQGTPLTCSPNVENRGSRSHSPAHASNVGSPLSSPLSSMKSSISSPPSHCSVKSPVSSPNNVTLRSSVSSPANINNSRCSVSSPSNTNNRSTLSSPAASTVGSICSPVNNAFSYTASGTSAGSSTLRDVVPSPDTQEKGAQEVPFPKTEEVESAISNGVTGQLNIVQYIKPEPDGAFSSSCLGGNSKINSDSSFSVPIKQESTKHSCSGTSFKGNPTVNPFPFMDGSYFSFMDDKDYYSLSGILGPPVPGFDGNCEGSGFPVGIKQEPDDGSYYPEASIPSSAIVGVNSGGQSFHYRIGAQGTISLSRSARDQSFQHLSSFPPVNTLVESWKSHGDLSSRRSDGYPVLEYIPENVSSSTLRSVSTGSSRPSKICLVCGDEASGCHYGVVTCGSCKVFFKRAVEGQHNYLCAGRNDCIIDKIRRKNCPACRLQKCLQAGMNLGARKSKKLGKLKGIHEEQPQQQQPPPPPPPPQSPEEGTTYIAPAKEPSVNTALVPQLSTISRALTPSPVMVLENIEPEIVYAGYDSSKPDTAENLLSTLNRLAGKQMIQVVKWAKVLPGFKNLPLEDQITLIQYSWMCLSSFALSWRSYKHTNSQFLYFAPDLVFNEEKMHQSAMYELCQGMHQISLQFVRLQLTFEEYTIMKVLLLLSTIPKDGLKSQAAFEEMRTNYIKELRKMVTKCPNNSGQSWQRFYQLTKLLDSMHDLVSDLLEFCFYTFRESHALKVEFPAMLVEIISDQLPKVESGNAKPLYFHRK

[5] = system: Rattus norvegicus; assay: Antidepressant-like activity in Wistar rat assessed as immobility time at 10 mg/kg, po administered at 1, 5, 23.5 hrs prior to testing measured for 5 mins by forced swimming test (reference value: 211.3 to 232.2 secs); assay type: functional
[6] = system: Rattus norvegicus; assay: Antidepressant-like activity in Wistar rat assessed as immobility time at 30 mg/kg, po administered at 1, 5, 23.5 hrs prior to testing measured for 5 mins by forced swimming test (reference value: 211.3 to 232.2 secs); assay type: functional
[7] = system: Rattus norvegicus; assay: Antidepressant-like activity in Wistar rat assessed as decrease in immobility time at 10 mg/kg, po administered at 1, 5, 23.5 hrs prior to testing measured for 5 mins by forced swimming test relative to vehicle-treated control; assay type: functional; design: scale not given: the % may be the effect or the level left
[8] = system: Rattus norvegicus; assay: Antidepressant-like activity in Wistar rat assessed as decrease in immobility time at 30 mg/kg, po administered at 1, 5, 23.5 hrs prior to testing measured for 5 mins by forced swimming test relative to vehicle-treated control; assay type: functional; design: scale not given: the % may be the effect or the level left

SMILES	Ki [1] [nM]	Ki [2] [nM]	IC50 [3] [nM]	other results
Cc1noc(C)c1-c1ccc2c(c1)C(C)(C)C(=O)C(C)(C)N2	16	22	37	Ki [4]: 0.337 µM
Cc1noc(C)c1-c1cc2c(cc1Cl)NC(C)(C)C(=O)C2(C)C	151	403	< 30	Ki [4]: > 3 µM
COc1cc2c(cc1-c1c(C)noc1C)C(C)(C)C(=O)C(C)(C)N2	146			
Cc1noc(C)c1-c1cc2c(c3c1CCCC3)NC(C)(C)C(=O)C2(C)C	106		167	
Cc1noc(C)c1-c1cc2c(c3c1OCO3)NC(C)(C)C(=O)C2(C)C		2270	77	Ki [4]: > 3 µM
Cc1cnn(C)c1-c1cc2c(c3c1CCC3)NC(C)(C)C(=O)C2(C)C	28	> 1250	128	
Cc1ncn(C)c1-c1cc2c(c3c1CCC3)NC(C)(C)C(=O)C2(C)C	69		150	
Cc1cc(-c2cc3c(c4c2CCC4)NC(C)(C)C(=O)C3(C)C)n(C)n1	> 384			
Cc1cn(C)c(-c2cc3c(c4c2CCC4)NC(C)(C)C(=O)C3(C)C)n1	> 384			
CC1(C)Nc2c(cc(-c3cccc4nccn34)c3c2CCC3)C(C)(C)C1=O			21	
CC1(C)Nc2c(cc(-c3cccn4nccc34)c3c2CCC3)C(C)(C)C1=O	35	1190	84	
CC1(C)Nc2c(cc(-c3cncc4nccn34)c3c2CCC3)C(C)(C)C1=O	46	> 1250	93	Ki [4]: > 3.33 µM
CC1(C)Nc2c(cc(-c3cccc4nncn34)c3c2CCC3)C(C)(C)C1=O			91	
CC1(C)Nc2c(cc(-c3cccn4cnnc34)c3c2CCC3)C(C)(C)C1=O	> 384			
CC1(C)Nc2c(cc(-c3ccnc4ccccc34)c3c2CCC3)C(C)(C)C1=O	151			
CC1(C)Nc2c(cc(-c3ccnc4ncccc34)c3c2CCC3)C(C)(C)C1=O			53	
CC#C[C@]1(O)CC[C@H]2[C@@H]3CCC4=CC(=O)CCC4=C3[C@@H](c3ccc(N(C)C)cc3)C[C@@]21C [MIFEPRISTONE]				Time [5]: 187 s; Time [6]: 169.3 s; Activity [7]: 88.5%; Activity [8]: 80.1%
